According to PubChem BioAssay AID312 (DTP/NCI, 2004):
Where “and” joins values, the source holds several entries; their conditions need not be identical. Identical values can stand only once. Inconclusive results and toxic doses are left out.

System: BDF1 mice, C1498 leukemia ip, median survival T/C
Experiment: NCI In Vivo Anticancer Drug Screen. Data for tumor model C1498 Myeloid Leukemia (intraperitoneal) in B6D2F1 (BDF1) mice
Conditions: endpoint: median survival time, higher = longer survival
Protocol: The antitumor activity of compounds was measured in mice bearing transplantable tumors. Survival or tumor size were measured and the results are expressed as the measurement made in the treated group (T) divided by the measurement made in the vehicle treated control group (C). The tumor model used in this assay is C1498 Myeloid Leukemia (intraperitoneal) in B6D2F1 (BDF1) mice

[1] = dose: 20.0 mg/kg/injection, schedule: Q01DX010 (ip), vehicle: saline
[2] = dose: 25.0 mg/kg/injection, schedule: Q01DX010 (ip), vehicle: saline
[3] = dose: 50.0 mg/kg/injection, schedule: Q01DX010 (ip), vehicle: saline
[4] = dose: 5.0 mg/kg/injection, schedule: Q01DX010 (ip), vehicle: saline
[5] = dose: 10.0 mg/kg/injection, schedule: Q01DX010 (ip), vehicle: saline
[6] = dose: 1.25 mg/kg/injection, schedule: Q01DX010 (ip), vehicle: other
[7] = dose: 2.5 mg/kg/injection, schedule: Q01DX010 (ip), vehicle: other

`O=c1[nH]cc(F)c(=O)[nH]1` was tested, and the T/C [1] was 159 % of control, the T/C (dose: 25.0 mg/kg/injection, schedule: Q01DX009 (ip), vehicle: saline) was 165 % of control and the T/C (dose: 30.0 mg/kg/injection, schedule: Q01DX009 (ip), vehicle: saline) was 165 % of control.

For `C#CCN(C)Cc1ccccc1`, the T/C [2] was 104 % of control, the T/C [3] was 100 % of control and 90 % of control and the T/C (dose: 100.0 mg/kg/injection, schedule: Q01DX010 (ip), vehicle: saline) was 90 % of control. For the same compound, the T/C (dose: 200.0 mg/kg/injection, schedule: Q01DX010 (ip), vehicle: saline) was 100 % of control and 90 % of control.

`CC[n+]1c(-c2ccccc2)c2cc(N)ccc2c2ccc(N)cc21` was tested, and the T/C (dose: 1.25 mg/kg/injection, schedule: Q01DX010 (ip), vehicle: saline) was 110 % of control, the T/C (dose: 2.5 mg/kg/injection, schedule: Q01DX010 (ip), vehicle: saline) was 105 % of control and 109 % of control and the T/C [4] was 100 % of control and 110 % of control. The T/C [5] was 100 % of control and 110 % of control and the T/C [1] was 100 % of control.

In the case of `O=c1c(O)cccc2cc(O)c(O)c(O)c12`, the T/C [2] is reported as 90 % of control and the T/C [3] is reported as 100 % of control.

In the case of `C=CC(CN1CC1)OC(C)=O` (stereo unspecified), the T/C (dose: 2.0 mg/kg/injection, schedule: Q01DX010 (ip), vehicle: saline) is reported as 104 % of control, the T/C (dose: 4.0 mg/kg/injection, schedule: Q01DX010 (ip), vehicle: saline) is reported as 122 % of control and the T/C (dose: 16.0 mg/kg/injection, schedule: Q01DX010 (ip), vehicle: saline) is reported as 104 % of control.

In the case of `NC(Cc1ccc(N(CCCl)CCCl)cc1)C(=O)O` (stereo unspecified), the T/C [4] is reported as 173 % of control and the T/C [5] is reported as 88 % of control.

With `CO[C@@H]1[C@@H](OC2OC(C)C(OC3CC(C)(O)C(OC(=O)CC(C)C)C(C)O3)C(N(C)C)C2O)[C@@H](CC=O)C[C@@H](C)C(=O)/C=C/C2O[C@H]2C[C@@H](C)OC(=O)C[C@H]1OC(C)=O` (stereo partly specified) the T/C (dose: 37.5 mg/kg/injection, schedule: Q01DX010 (ip), vehicle: saline) was 109 % of control and 91 % of control, the T/C (dose: 75.0 mg/kg/injection, schedule: Q01DX010 (ip), vehicle: saline) was 100 % of control and 91 % of control and the T/C (dose: 150.0 mg/kg/injection, schedule: Q01DX010 (ip), vehicle: saline) was 95 % of control and 90 % of control. The T/C (dose: 300.0 mg/kg/injection, schedule: Q01DX010 (ip), vehicle: saline) was 91 % of control and 90 % of control.

With `O=c1[nH]c(=O)n(C2CC(O)C(CO)O2)cc1F` (stereo unspecified) the T/C [4] was 109 % of control, the T/C [5] was 115 % of control and 118 % of control and the T/C (dose: 40.0 mg/kg/injection, schedule: Q01DX010 (ip), vehicle: saline) was 154 % of control. For the same compound, the T/C (dose: 80.0 mg/kg/injection, schedule: Q01DX010 (ip), vehicle: saline) was 107 % of control.

In the case of `S=c1nc[nH]c2nc[nH]c12`, the T/C [6] is reported as 104 % of control, the T/C [7] is reported as 95 % of control and the T/C (dose: 5.0 mg/kg/injection, schedule: Q01DX010 (ip), vehicle: other) is reported as 109 % of control. The T/C (dose: 10.0 mg/kg/injection, schedule: Q01DX010 (ip), vehicle: other) was 95 % of control.

In the case of `Cc1cc(N(CCCl)CCCl)ccc1N=Nc1ccccc1C(=O)O`, the T/C [1] is reported as 113 % of control.

`COc1cccc2c1C(=O)c1c(O)c3c(c(O)c1C2=O)C[C@@](O)(C(C)=O)C[C@@H]3OC1CC(N)C(O)C(C)O1` (stereo partly specified) was tested, and the T/C [6] was 107 % of control and 115 % of control, the T/C [7] was 92 % of control and 111 % of control and the T/C (dose: 156.0 micrograms/kg/injection, schedule: Q01DX010 (ip), vehicle: saline) was 118 % of control. The T/C (dose: 313.0 micrograms/kg/injection, schedule: Q01DX010 (ip), vehicle: saline) was 118 % of control.

For `O=C(Nc1ccc(C2=NCCN2)cc1)c1ccc(C(=O)Nc2ccc(C3=NCCN3)cc2)c([N+](=O)[O-])c1`, the T/C (dose: 6.0 mg/kg/injection, schedule: Q01DX010 (ip), vehicle: saline) was 96 % of control and 119 % of control, the T/C (dose: 8.0 mg/kg/injection, schedule: Q01DX010 (ip), vehicle: saline) was 100 % of control and the T/C (dose: 18.0 mg/kg/injection, schedule: Q01DX010 (ip), vehicle: saline) was 103 % of control.

With `CN(Cc1cnc2nc(N)nc(N)c2n1)c1ccc(C(=O)N[C@@H](CCC(=O)O)C(=O)O)cc1` the T/C (dose: 1.5 mg/kg/injection, schedule: Q01DX009 (ip), vehicle: sodium bicarbonate) was 110 % of control and the T/C (dose: 2.0 mg/kg/injection, schedule: Q01DX009 (ip), vehicle: sodium bicarbonate) was 124 % of control.
